In publication PMC9917214, “Assessment of the Permeability of 3,4-Methylenedioxypyrovalerone (MDPV) across the Caco-2 Monolayer for Estimation of Intestinal Absorption and Enantioselectivity” (International Journal of Molecular Sciences, 2023):

Tests used:
Caco-2 cells [1] = test: Cell viability assay (Neutral Red) in Caco-2 cells; type: cell-based, human; settings: 24 h, NR assay
Method: MDPV cytotoxicity for the Caco-2 cell line was evaluated through the NR assay as previously described. This method provides an indication of the ability of lysosomes from viable cells to incorporate the NR dye. Caco-2 cells were seeded onto 96-well plates using a density of 60,000 cells/cm^2 to obtain confluent monolayers at the experimental day. The cells were incubated with the racemate of MDPV (0, 50, 150, 300, 500, 750, 1000, 1250, and 1500 µM) in fresh cell culture medium for 24 h. After the selected time interval, the cell culture medium was removed and replaced by a 50 µg/mL NR solution in HBSS (+/+) for 90 min, after which the NR solution was discarded, a lysis solution (50% EtOH/1% glacial acetic acid solution) was added, and the absorbance was read at 540 nm in a 96-well plate reader (PowerWaveX; Bio-Tek, Winooski, VT, USA). Additionally, 1% Triton X-100 was used as the positive control. Data were expressed as the percentage of cell viability relative to untreated cells. Data were obtained from four independent experiments performed in triplicate.

[2] = Sample stability in HBSS (+/+) after 6 weeks of storage (UHPLC-UV peak area); type: physicochemical
Method: To evaluate stability, three different calibrators within the linear concentration range (10 (low), 100 (medium), and 500 (high) μM) were prepared and injected into the UHPLC. The remaining volume of each calibrator was divided into several vials and further stored at different temperatures (room temperature, 4 °C, −20 °C, and −80 °C) for 6 weeks (the same storage time of the samples obtained from the permeability assay with Caco-2 cells). After the storage period, samples were injected in duplicate and the obtained analyte peak area for each calibrator in each temperature was compared with the peak area obtained on day 0. Percentages of peak variation were calculated for each concentration.

Caco-2 model = system: Caco-2 model; parameters: method as in PMID 32234388; settings: cited from earlier work
Caco-2 monolayer = test: Permeability assay across the Caco-2 monolayer; type: in vitro ADME, human; settings: mean ± SD; for Mass Balance (%): 300 µM in HBSS (+/+), 300 min
Method: For the in vitro permeability assay, Caco-2 cells were seeded on polycarbonate transwell inserts (12-well, 0.4 μm pores, Corning) using a density of 120,000 cells/cm^2 and cultivated for twenty-one days to allow the development of a differentiated monolayer. TEER was measured to control the integrity of the monolayers for twenty-one days.
After twenty-one days, the cells were incubated with 300 µM of each enantiomer of MDPV (in HBSS (+/+)). The assay was performed for both AP to BL and BL to AP directions. For AP to BL, exposure to the enantiomers was performed in the AP compartment (450 µL) while for BL to AP, exposure was made in the BL compartment (1250 µL). Right after the exposure (time 0), 50 µL was collected from each donor compartment (where exposure was performed). At suitable time intervals (40, 60, 90, 120, 180, 240, and 300 min), 600 µL (for AP to BL) and 200 µL (for BL to AL) of samples was collected from the BL and AP compartments (receiver compartments), respectively, and the same amount of HBSS (+/+) was added. In the last time point (300 min), 50 µL was also collected from the donor compartment. Collected samples were stored at −80 °C until the day of the UHPLC analysis. After 6 weeks of storage, samples were filtered with a 13 mm nylon syringe filter with […] pore size from Olimpeak™ and quantification was performed by the validated UHPLC-UV method. Results were obtained for three experiments, performed in duplicate.
Mass balance was calculated using the following equation [31]:(5) % Mass balance=100×QR,T+QD,f/QD,0 where QR,T is the total cumulative quantity in the receiver chamber (nmol), QD,f is the final quantity in the donor chamber (nmol), and QD,0 is the initial quantity in the donor chamber (nmol).
To calculate Papp, first, a determination had to be made to determine whether the results were under sink or non-sink conditions. […] If the ratio is higher, Papp has to be calculated considering a non-sink analysis.
For sink conditions, Papp was calculated in cm/s using the following equation [24]:(6) Papp=ΔQ/Δt×1/A×C0 where ΔQ/Δt is the amount of compound over time (mol/s), A is the surface area of the monolayer (cm^2), and C0 is the initial drug concentration on the donor side (mol/mL).
For non-sink conditions, a continuous change of the donor and receiver concentrations is considered, and the following equation must be used for each time interval to calculate the theoretical concentration at the receiver side:(7) CR(t)=(Qtot/VD+VR)+(CR(t−1)×f−Qtot/VD+VR)×e^−P×A×(1/VR+1/VD)×Δt where CR(t) is the theoretical concentration in the receiver side at time t (µM), Qtot is the total amount of drug in both chambers at time t (nmol), VR and VD are the volumes in the receiver and donor compartments (mL), respectively, CR(t-1) is the concentration in the receiver chamber at the previous time (µM), f is the dilution factor for the sample replacement, A is the surface area of the monolayer (cm^2), Δt is the time interval (s), and P is an initial approximation of the permeability coefficient calculated through Equation (6) (cm/s).
Papp values are determined by the minimization of the Sum of Squared Residuals (SSR):(8) SSR=∑[CR(t)theor−CR(t)exp]^2 where CR(t)theor is the theoretical concentration in the receiver side at time t calculated through Equation (7) and CR(t)exp is the experimental concentration in the receiver side at time t obtained directly from the quantification of the samples. […]

Caco-2 cells [3] = settings: racemates; cited from earlier work

CCCC(C(=O)c1ccc2c(c1)OCO2)N1CCCC1 (centres unmarked) [MDPV, 3,4-Methylenedioxypyrovalerone]
Concentration from which a significant decrease in cell viability was observed (Caco-2 cells [1]): ≥ 1000 µM
Concentration with no statistically significant differences in cell viability (Caco-2 cells [1]; tested up to 1500 µM): ≤ 750 µM
% peak area variation relative to day 0 ([2]; 10 µM in HBSS (+/+), 6 weeks of storage at 4 °C): 10.9%
% peak area variation relative to day 0 ([2]; 10 µM in HBSS (+/+), 6 weeks of storage at RT): 11.0%
% peak area variation relative to day 0 ([2]; 10 µM in HBSS (+/+), 6 weeks of storage at −20 °C): 12.5%
% peak area variation relative to day 0 ([2]; 10 µM in HBSS (+/+), 6 weeks of storage at −80 °C): 7.1%
% peak area variation relative to day 0 ([2]; 100 µM in HBSS (+/+), 6 weeks of storage at 4 °C): 9.1%
% peak area variation relative to day 0 ([2]; 100 µM in HBSS (+/+), 6 weeks of storage at RT): 11.9%
% peak area variation relative to day 0 ([2]; 100 µM in HBSS (+/+), 6 weeks of storage at −20 °C): 10.4%
% peak area variation relative to day 0 ([2]; 100 µM in HBSS (+/+), 6 weeks of storage at −80 °C): 8.6%
% peak area variation relative to day 0 ([2]; 500 µM in HBSS (+/+), 6 weeks of storage at 4 °C): 3.4%
% peak area variation relative to day 0 ([2]; 500 µM in HBSS (+/+), 6 weeks of storage at RT): 10.2%
% peak area variation relative to day 0 ([2]; 500 µM in HBSS (+/+), 6 weeks of storage at −20 °C): 5.3%
% peak area variation relative to day 0 ([2]; 500 µM in HBSS (+/+), 6 weeks of storage at −80 °C): 6.8%

CCC[C@@H](NC)C(=O)c1ccccc1 [R-(-)-pentedrone]
Enantioselectivity in permeability (more permeable enantiomer) (Caco-2 model): most permeable

CCC[C@@H](C(=O)c1ccc2c(c1)OCO2)N1CCCC1 [S-(-)-MDPV]
Mass Balance (%) (Caco-2 monolayer; AP → BL direction): 100 ± 2%
Papp (Caco-2 monolayer; AP → BL direction, sink conditions (Equation 6), 300 µM): 1.8e-05 ± 1e-06 cm/s
Mass Balance (%) (Caco-2 monolayer; BL → AP direction): 101 ± 4%
Papp (Caco-2 monolayer; BL → AP direction, non-sink conditions (Equation 7), 300 µM): 3.4 × 10^−5 ± 1 × 10^−6 ****^; # cm/s
Efflux Ratio (Caco-2 monolayer; Papp (BL→AP)/Papp (AP→BL), 300 µM): 1.8 ± 0.2

CN[C@@H](C)C(=O)c1ccc2c(c1)OCO2 [S-(-)-methylone]
Enantioselectivity in permeability (more permeable enantiomer) (Caco-2 model): most permeable

CNC(C)C(=O)c1ccc2c(c1)OCO2 (centres unmarked) [methylone]
Concentration range with no cytotoxic effects (Caco-2 cells [3]): up to 2000 μM

CCCC(NC)C(=O)c1ccccc1 (centres unmarked) [pentedrone]
Concentration range with no cytotoxic effects (Caco-2 cells [3]): up to 2000 μM
